Key:
[1] = target: recombinant BACE1 protein (Homo sapiens, UniProt P56817); assay: Biochemical FRET based assay; conditions: recombinant BACE1 1 μg/ml, 120 minutes at room temperature, pH 5.0; for IC50: read-out: Biochemical FRET based assay pIC50 (converted)
Outline: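 Proteolysis was read as the rise in donor fluorescence (320 nm excitation, 405 nm emission) from T0 to T120, expressed in RFU. The reaction ran 120 minutes at room temperature at pH 5.0 in citrate buffer with 4% DMSO, using […] quenched Swedish APP peptide and 1 μg/ml BACE1.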

[2] = tested on: Abeta 1-42; assay: Cellular αLisa assay in SKNBE2 cells, Abeta 1-42; format: cell-based, human; conditions: incubated for 18 hours; for IC50: Homo sapiens, SKNBE2, 18 h, read-out: Cellular αLisa assay in SKNBE2 cells Abeta 42 pIC50 (converted)
Outline: (§1)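 Secreted Abeta levels were measured by sandwich αLisa, pairing biotin-AbN/25 donor beads with Ab4G8 acceptor beads for total Abeta or cAb42/26 for Abeta 1-42, read at 615 nm after 650 nm excitation following 1 hour. Cells were SKNBE2 expressing wild-type hAPP695, exposed to compound for 18 hours.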

[3] = tested on: Abeta total; assay: Cellular αLisa assay in SKNBE2 cells, Abeta total; format: cell-based, human; conditions: incubated for 18 hours; for IC50: Homo sapiens, SKNBE2, 18 h, read-out: Cellular αLisa assay in SKNBE2 cells Abetatotal pIC50 (converted)
Outline: as §1

recombinant BACE1 protein, sequence (P56817 46-501): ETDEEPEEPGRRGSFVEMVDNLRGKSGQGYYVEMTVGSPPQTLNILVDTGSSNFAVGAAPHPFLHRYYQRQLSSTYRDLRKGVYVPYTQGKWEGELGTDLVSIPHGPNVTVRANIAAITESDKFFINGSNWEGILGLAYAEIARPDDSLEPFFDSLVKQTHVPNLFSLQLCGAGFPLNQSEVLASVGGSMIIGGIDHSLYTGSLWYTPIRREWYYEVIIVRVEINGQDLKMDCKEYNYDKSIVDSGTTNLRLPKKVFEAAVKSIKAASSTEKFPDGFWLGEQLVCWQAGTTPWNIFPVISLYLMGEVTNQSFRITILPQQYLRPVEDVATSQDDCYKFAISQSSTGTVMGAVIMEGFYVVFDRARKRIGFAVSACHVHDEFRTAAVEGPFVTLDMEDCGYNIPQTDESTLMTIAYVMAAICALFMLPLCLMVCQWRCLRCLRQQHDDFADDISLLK

| Biochemical FRET based assay pIC50 [1] | Cellular αLisa assay in SKNBE2 cells Abeta 42 pIC50 [2] | Cellular αLisa assay in SKNBE2 cells Abetatotal pIC50 [3] | IC50 [1] [nM] | IC50 [2] [nM] | IC50 [3] [nM] | Structure (SMILES) |
| --- | --- | --- | --- | --- | --- | --- |
| 6.04 | 7.31 | 7.32 | – | – | – | Cc1cnc(C(=O)Nc2ccc(F)c([C@]3(C)COCC(N)=N3)c2)cn1 [Compound 40] |
| 6.33 | 7.31 | 7.33 | – | – | – | C[C@@]1(c2cc(NC(=O)c3ccc(Cl)cc3)ccc2F)COCC(N)=N1 [Compound 41] |
| 5.53 | 6.85 | 6.92 | – | – | – | COc1cc(Cl)ccc1C(=O)Nc1ccc(F)c([C@]2(C)COCC(N)=N2)c1 [Compound 45] |
| 5.95 | 6.79 | 6.83 | – | – | – | COc1cccc(-c2cc([C@]3(C)COCC(N)=N3)c(F)cc2F)c1 [Compound 47] |
| 5.73 | 6.19 | 6.22 | – | – | – | C[C@@]1(c2cc(-c3cc(Cl)cc(Cl)c3)c(F)cc2F)COCC(N)=N1 [Compound 48] |
| 5.41 | 6.61 | 6.59 | – | – | – | C[C@@]1(c2cccc(-c3cccc(C#N)c3)c2)COCC(N)=N1 [Compound 51] |
| 6.35 | 7.06 | 7.04 | – | – | – | C[C@@]1(c2cc(NC(=O)c3ccc(Cl)cc3F)ccc2F)COCC(N)=N1.Cl [Compound 68] |
| – | – | – | 102 | 4.9 | 4.27 | C[C@@]1(c2cccc(NC(=O)c3ccc(Cl)cn3)c2)COC2(CC2)C(N)=N1 [Compound 73] |
| – | – | – | 4170 | 195 | 204 | C[C@@]1(c2cccc(-c3cncnc3)c2)COC2(CC2)C(N)=N1 [Compound 74] |
| – | – | – | 52.5 | 12 | 11.7 | CC1(c2cc(NC(=O)c3ncc(Cl)cc3F)ccc2F)N=C(N)COC1F (stereo not drawn) [Compound 77] |
| – | – | – | 55 | 11.7 | 8.51 | CC1(c2cc(NC(=O)c3ncc(Cl)cc3Cl)ccc2F)N=C(N)COC1F (stereo not drawn) [Compound 78] |
| – | – | – | 97.7 | 60.3 | 53.7 | COc1cnc(C(=O)Nc2cccc(C3(C)N=C(N)COC3F)c2)cn1 (stereo not drawn) [Compound 80] |
| – | – | – | 1290 | 120 | 120 | COc1cncc(-c2cccc(C3(C)N=C(N)COC3C(F)(F)F)c2)c1 (stereo not drawn) [Compound 108] |
| 7.48 | 8.35 | 8.36 | – | – | – | Cc1cc(Cl)cnc1C(=O)Nc1ccc(F)c([C@]2(C)COCC(N)=N2)c1 [Compound 143] |
| 7.11 | 7.27 | 7.38 | – | – | – | CC1(c2cc(NC(=O)c3ncc(Cl)cn3)ccc2F)COCC(N)=N1 (stereo not drawn) [Compound 144] |
| 4.67 | 5.45 | 5.55 | – | – | – | COc1cccc(-c2cc([C@]3(C)COCC(N)=N3)c(F)cc2F)n1.Cl [Compound 145] |
| 6.26 | 7.07 | 7.03 | – | – | – | CC1(c2cccc(NC(=O)c3cnc(C(F)(F)F)cn3)c2)COCC(N)=N1 (stereo not drawn) [Compound 146] |
| 6.7 | 7.59 | 7.6 | – | – | – | CC1(c2cc(NC(=O)c3cnc(C(F)(F)F)cn3)ccc2F)COCC(N)=N1 (stereo not drawn) [Compound 147] |
| – | – | – | 1100 | 200 | 200 | C[C@@]1(c2cc(-c3cncnc3)c(F)cc2F)COC2(CC2)C(N)=N1 [Compound 150] |
| <4.52 | <5 | <5 | – | – | – | C[C@]1(c2cc(-c3cncnc3)c(F)cc2F)COCC(N)=N1 [Compound 155] |
| – | – | – | 832 | 79.4 | 74.1 | C[C@]1(c2cc(NC(=O)c3ccncn3)ccc2F)N=C(N)CO[C@H]1C(F)(F)F [Compound 168] |
| – | – | – | 1120 | 135 | 129 | CC1(c2cccc(-c3cncc(C#N)c3)c2)N=C(N)COC1C(F)(F)F (stereo not drawn) [Compound 171] |

| Biochemical FRET based assay pIC50 [1] | Cellular αLisa assay in SKNBE2 cells Abeta 42 pIC50 [2] | Cellular αLisa assay in SKNBE2 cells Abetatotal pIC50 [3] | IC50 [1] [nM] | IC50 [2] [nM] | IC50 [3] [nM] | Structure (SMILES) |
| --- | --- | --- | --- | --- | --- | --- |
| – | – | – | 44.7 | 33.9 | 28.2 | COc1cnc(C(=O)Nc2ccc(F)c([C@@]3(C)N=C(N)CO[C@@]3(F)C(F)(F)F)c2)cn1 [Compound 180] |
| – | – | – | 550 | 209 | 204 | C[C@]1(c2cc(NC(=O)c3ccncn3)ccc2F)N=C(N)CO[C@@]1(F)C(F)(F)F [Compound 182] |
| 6.52 | 6.7 | 6.69 | – | – | – | N#Cc1ccc(C(=O)Nc2cccc(C3(C4CC4)N=C(N)COC3(F)C(F)(F)F)c2)nc1 (stereo not drawn) [Compound 198] |
| – | – | – | 479 | 537 | 537 | COc1cnc(C(=O)Nc2cccc([C@@]3(C4CC4)N=C(N)CO[C@]3(F)C(F)(F)F)c2)cn1 [Compound 202] |
| – | – | – | 20.4 | 37.2 | 37.2 | COc1cnc(C(=O)Nc2cccc([C@@]3(C4CC4)N=C(N)CO[C@@]3(F)C(F)(F)F)c2)cn1 [Compound 203] |
| – | – | – | 110 | 794 | 708 | N#Cc1ccc(C(=O)Nc2ccc(F)c([C@@]3(C4CC4)N=C(N)CO[C@@H]3F)c2)nc1 [Compound 214, (2R,3R)—N-[3-(5-amino-3-cyclopropyl-2-fluoro-3,6-dihydro-2H-1,4-oxazin-3-yl)-4-fluorophenyl]-5-cyanopyridine-2-carboxamide] |
| 6.3 | 6.51 | 6.52 | – | – | – | N#Cc1ccc(C(=O)Nc2ccc(F)c(C3(C4CC4)N=C(N)COC3F)c2)nc1 (stereo not drawn) [Compound 215] |
| – | – | – | 468 | 355 | 347 | NC1=N[C@@](c2cc(NC(=O)c3ncc(Cl)cc3F)ccc2F)(C2CC2)[C@H](F)OC1 [Compound 220] |
| – | – | – | 24500 | > 10000 | > 10000 | N#Cc1cncc(-c2ccc(F)c([C@@]3(C4CC4)N=C(N)CO[C@H]3F)c2)c1 [Compound 223] |
| – | – | – | 14800 | > 10000 | > 10000 | NC1=N[C@@](c2cc(-c3cncnc3)ccc2F)(C2CC2)[C@H](F)OC1 [Compound 224, (5R,6S)-5-cyclopropyl-6-fluoro-5-(2-fluoro-5-pyrimidin-5-ylphenyl)-5,6-dihydro-2H-1,4-oxazin-3-amine] |
| – | – | – | 35.5 | 6.31 | 6.61 | N#Cc1ccc(C(=O)Nc2cccc([C@@]3(C4CC4)N=C(N)CO[C@H]3C(F)(F)F)c2)nc1 [Compound 225, (2R,3R)—N-{3-[5-amino-3-cyclopropyl-2-(trifluoromethyl)-3,6-dihydro-2H-1,4-oxazin-3-yl]phenyl}-5-cyanopyridine-2-carboxamide] |
| 6.86 | 7.41 | 7.47 | – | – | – | N#Cc1ccc(C(=O)Nc2cccc(C3(C4CC4)N=C(N)COC3C(F)(F)F)c2)nc1 (stereo not drawn) [Compound 226] |
| – | – | – | 45.7 | 13.8 | 13.5 | COc1cnc(C(=O)Nc2ccc(F)c([C@@]3(C4CC4)N=C(N)CO[C@H]3C(F)(F)F)c2)cn1 [Compound 230] |
| – | – | – | 33.9 | 12.3 | 11.7 | COc1ccc(C(=O)Nc2ccc(F)c([C@@]3(C4CC4)N=C(N)CO[C@H]3C(F)(F)F)c2)nc1 [Compound 231] |
| – | – | – | 31.6 | 12 | 12.9 | NC1=N[C@@](c2cc(NC(=O)c3ccc(Cl)cn3)ccc2F)(C2CC2)[C@H](C(F)(F)F)OC1 [Compound 233] |
| – | – | – | 25.1 | 11.5 | 10.2 | NC1=N[C@@](c2cc(NC(=O)c3ncc(Cl)cc3Cl)ccc2F)(C2CC2)[C@H](C(F)(F)F)OC1 [Compound 234] |
| – | – | – | 33.1 | 14.5 | 14.1 | N#Cc1cnc(C(=O)Nc2ccc(F)c([C@@]3(C4CC4)N=C(N)CO[C@H]3C(F)(F)F)c2)c(Cl)c1 [Compound 235] |
| – | – | – | 1050 | 224 | 224 | CC1(c2cc(-c3cncc(C#N)c3)ccc2F)N=C(N)COC1C(F)(F)F (stereo not drawn) [Compound 239] |
| – | – | – | 25.7 | 10.5 | 10.2 | C[C@]1(c2cccc(NC(=O)c3ccc(C#N)cn3)c2)N=C(N)CO[C@]1(F)C(F)(F)F [Compound 240] |
| – | – | – | 324 | 126 | 120 | C[C@]1(c2cccc(NC(=O)c3ccc(C#N)cn3)c2)N=C(N)CO[C@@]1(F)C(F)(F)F [Compound 241] |
| – | – | – | 20.4 | 12.3 | 12.3 | C[C@]1(c2cccc(NC(=O)c3ncc(Cl)cc3Cl)c2)N=C(N)CO[C@]1(F)C(F)(F)F [Compound 242] |
